The source of these data is ChEMBL document CHEMBL1201862, “PubChem BioAssay data set” (2004).

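Five compound concentrations were applied to cells in 96-well plates for 48 hours; endpoints were derived by simple linear interpolation of the resulting dose-response curve. Here, GI50 denotes the concentration required for 50% inhibition of growth.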 Calls of active or inactive are those of the source. No stated cut-off is given here; in the data, active = GI50 up to about 1.1 µM and inactive = higher.

Among the test systems are DU-145; SK-MEL-5; Hs-578T; SR; Malme-3M; HT-29; U-251; MDA-MB-231; SF-539; ACHN; NCI-H460; OVCAR-4; LOX IMVI; A549; HL-60; COLO 205; A498; KM12; MCF7; M14.
Test in all cases: growth of human tumour cells (NCI), 48 h

Consider `Cc1nc2ccc(F)cc2c2c1CCS2`, for which the GI50 in the test on DU-145 was > 100 µM (inactive); in the test on SK-MEL-5, 30.3 µM (inactive); with Hs-578T, 43 µM (inactive); with SR it was 56.8 µM (inactive); with Malme-3M, 84.5 µM (inactive); in the test with HT-29, 71.8 µM (inactive). In addition, the GI50 in the test with U-251 was 50.4 µM (inactive); in the test with MDA-MB-231, 39.9 µM (inactive); with SF-539 it was > 100 µM (inactive); with ACHN it was 73.6 µM (inactive); in the test with NCI-H460, 48.2 µM (inactive); in the test with OVCAR-4, > 100 µM (inactive). The GI50 is 51.3 µM (inactive) with LOX IMVI; > 100 µM (inactive) in the test with A549; 24 µM (inactive) in the test with HL-60; 38.5 µM (inactive) in the test on COLO 205; > 100 µM (inactive) in the test on A498; 64.9 µM (inactive) in the test with KM12. In addition, the GI50 in the test on MCF7 is 56.4 µM (inactive).
For `c1ccc2c(c1)[nH]c1c3ccccc3sc21`, the GI50 in the test on DU-145 is > 100 µM (inactive); in the test on M14 it was > 100 µM (inactive); with SK-MEL-5, > 100 µM (inactive); in the test on Hs-578T, > 100 µM (inactive); in the test on SR, 23 µM (inactive); in the test on Malme-3M, > 100 µM (inactive). In addition, the GI50 is > 100 µM (inactive) in the test with HT-29; 89.3 µM (inactive) with U-251; > 100 µM (inactive) in the test with MDA-MB-231; > 100 µM (inactive) with SF-539; > 100 µM (inactive) in the test with ACHN; > 100 µM (inactive) in the test on NCI-H460. For the same compound, the GI50 was > 100 µM (inactive) with OVCAR-4; > 100 µM (inactive) with LOX IMVI; 77.4 µM (inactive) in the test with A549; > 100 µM (inactive) with HL-60; > 100 µM (inactive) in the test with COLO 205; > 100 µM (inactive) in the test with A498. The GI50 was > 100 µM (inactive) with KM12 and 24.9 µM (inactive) in the test on MCF7.
Take `N#CC(NNC(=O)c1ccccc1O)c1c(O)ccc2ccccc12` (configuration not stated): the GI50 in the test on DU-145 was 2.54 µM (inactive); with M14, 3.46 µM (inactive); in the test on SK-MEL-5, 2.67 µM (inactive); in the test with Hs-578T it was 17.3 µM (inactive); in the test on SR, 1.46 µM (inactive); in the test with Malme-3M, 6.27 µM (inactive). The GI50 was 20.3 µM (inactive) in the test on HT-29; 3.79 µM (inactive) in the test on U-251; 3.2 µM (inactive) with MDA-MB-231; 4.63 µM (inactive) with SF-539; 5.04 µM (inactive) with ACHN; 2.99 µM (inactive) in the test with NCI-H460. Moreover, the GI50 is 2.58 µM (inactive) with OVCAR-4; 0.877 µM (active) in the test on LOX IMVI; 2.94 µM (inactive) in the test with A549; 0.713 µM (active) with HL-60; 13.2 µM (inactive) in the test with COLO 205; 34.7 µM (inactive) with A498. The GI50 was 4.84 µM (inactive) in the test with KM12 and 4.5 µM (inactive) in the test on MCF7.
Take `O=C1Nc2ccccc2/C1=C\c1c(Cl)n(-c2ccccc2)c2ccccc12`: the GI50 is 2.79 µM (inactive) in the test with DU-145; 2.92 µM (inactive) in the test with M14; 2.66 µM (inactive) in the test on SK-MEL-5; 0.851 µM (active) in the test with Hs-578T; 2.96 µM (inactive) with SR; 2.07 µM (inactive) in the test on Malme-3M. For the same compound, the GI50 in the test with HT-29 was 2.43 µM (inactive); in the test with U-251, 3.48 µM (inactive); in the test with MDA-MB-231, 3.03 µM (inactive); in the test on SF-539, 1.87 µM (inactive); in the test with ACHN, 5.75 µM (inactive); in the test on NCI-H460, 3.18 µM (inactive). Further, the GI50 in the test on OVCAR-4 is 5.02 µM (inactive); in the test with LOX IMVI, 3.56 µM (inactive); in the test with A549, 3.52 µM (inactive); with HL-60, 2.77 µM (inactive); with COLO 205, 1.61 µM (inactive); in the test with A498, 6.7 µM (inactive). In addition, the GI50 with KM12 was 2.84 µM (inactive); in the test with MCF7 it was 3.44 µM (inactive).
On to `NC(=S)NNCC(=O)CC(O)(C(F)(F)F)C(F)(F)Cl` (configuration not stated), for which the GI50 in the test on DU-145, in the test with M14, in the test with SK-MEL-5, in the test with Hs-578T, in the test on SR and with Malme-3M was > 100 µM (inactive) each time. Further, the GI50 with HT-29 is > 100 µM (inactive); in the test on U-251, > 100 µM (inactive); with MDA-MB-231, > 100 µM (inactive); in the test on SF-539, > 100 µM (inactive); in the test with ACHN it was 54.5 µM (inactive); in the test on NCI-H460 it was 63.2 µM (inactive). Further, the GI50 in the test on OVCAR-4 is > 100 µM (inactive); in the test on LOX IMVI, > 100 µM (inactive); in the test with A549, > 100 µM (inactive); in the test on HL-60, 97.3 µM (inactive); with COLO 205, > 100 µM (inactive); in the test on A498 it was > 100 µM (inactive). The GI50 in the test with KM12 and in the test on MCF7 was > 100 µM (inactive) each time.
For `CC(C)C[C@H](NC(=O)[C@H](Cc1cccc2ccccc12)NS(=O)(=O)c1cccc2cccnc12)B(O)O`, the GI50 was 0.0445 µM (active) in the test with DU-145; < 0.01 µM (active) with SK-MEL-5; < 0.0199 µM (active) in the test with Hs-578T; < 0.0167 µM (active) in the test with SR; < 0.01 µM (active) in the test with Malme-3M; < 0.0165 µM (active) with HT-29. The GI50 in the test with U-251 was 0.0264 µM (active); with MDA-MB-231, < 0.0149 µM (active); in the test on SF-539, < 0.01 µM (active); with ACHN it was 0.0327 µM (active); in the test with NCI-H460 it was 0.0893 µM (active); in the test with OVCAR-4, 0.0109 µM (active). The GI50 in the test on LOX IMVI was < 0.0118 µM (active); in the test on A549, 0.0435 µM (active); with HL-60, < 0.01 µM (active); in the test with COLO 205, < 0.0243 µM (active); in the test with A498, < 0.0147 µM (active); in the test with KM12, 0.0432 µM (active). Further, the GI50 with MCF7 is < 0.0151 µM (active).
Consider `N#CC1=C(N)N(/N=C/c2ccco2)C(c2ccco2)C1(C#N)C#N` (configuration not stated), for which the GI50 in the test on DU-145 was 17.7 µM (inactive); in the test on M14, 20 µM (inactive); in the test with SK-MEL-5, 15.3 µM (inactive); in the test on Hs-578T it was 22.2 µM (inactive); in the test with SR it was 16 µM (inactive); in the test on Malme-3M, 18.9 µM (inactive). Besides, the GI50 is 14.2 µM (inactive) in the test on HT-29; 18.9 µM (inactive) in the test on U-251; 19.5 µM (inactive) with MDA-MB-231; 22.1 µM (inactive) with SF-539; 15.6 µM (inactive) in the test with ACHN; 15.4 µM (inactive) with OVCAR-4. The GI50 in the test with LOX IMVI was 14.2 µM (inactive); in the test with A549, 19.6 µM (inactive); in the test with HL-60 it was 3.35 µM (inactive); with COLO 205 it was 14.2 µM (inactive); with A498, 16 µM (inactive); in the test on KM12, 15.1 µM (inactive). Further, in the test on MCF7, the GI50 was 20.5 µM (inactive).
